In data set [1] the test system is Mus musculus. The data set is described as follows: Toxicity in mouse at 0.1 mg/ear administered topically. The data set is classed as organism-based. The settings on record: in vivo, topical_or_ocular.
Data set [2] relates to Mus musculus. Kind of data set: Antiinflammatory activity in mouse assessed as reduction in PMA-induced ear edema at 0.1 mg/ear administered topically measured after 24 hrs relative to control. The data set is classed as functional. On the set-up: scale not given: the % may be the effect or the level left.
Data set [3] has as its system Mus musculus. The data set is described as follows: Antiinflammatory activity in mouse assessed as reduction in PMA-induced ear edema at 3 mg/ear administered topically relative to control. The data set is classed as functional. On the set-up: scale not given: the % may be the effect or the level left.

Molecules are shown by their SMILES.

`C/C(=C\C=C\C(C)(C)O)C(C)C`: the Activity entry in the data set with Mus musculus [1] is recorded as “Non-toxic”; in the data set with Mus musculus [2], 80%.
`C/C(=C\C=C\C(C)(C)O)C1CCCCC1`: the results for the Activity result in the data set on Mus musculus [1] and in the data set with Mus musculus [2] were “Non-toxic” and 62%, respectively.
In the same order, the values of `C/C(=C\C=C\C(C)(C)O)c1ccccc1` are “Non-toxic” and 0%.
Regarding `CC1=CCC(/C(C)=C/C=C/C(C)(C)O)CC1` (stereo not given), the Activity entry in the data set on Mus musculus [1] is “Non-toxic”; in the data set with Mus musculus [2], 58%.
For `C/C(=C\C=C\C(C)(C)O)C1CC[C@@H](C)C[C@H]1O` (stereo not given in full) the same measures were “Non-toxic” and 71%.
Consider `C/C(=C\C=C\C(C)(C)O)C1CCc2ccccc2C1` (stereo not given), for which the values for the Activity entry in the data set on Mus musculus [1] and in the data set with Mus musculus [2] were “Non-toxic” and 58%, respectively.
For `C=C[C@@]1(C)CC[C@H](/C(C)=C/C=C/C(C)(C)O)C[C@@H]1C(=C)C` [FUSCOL] the same measures were “Non-toxic” and 46%.
As for `COc1ccc2c(c1)c(CC(=O)O)c(C)n2C(=O)c1ccc(Cl)cc1` [INDOMETHACIN], the Activity with Mus musculus [3] is recorded as 51%.

The values above are taken from ChEMBL document CHEMBL3351784, “Synthesis and evaluation of anti-inflammatory activity of derivatives of the marine natural products fuscol and eunicol” (Bioorg Med Chem Lett, 2014).
